The record followed here is patent US12252524B2, “GIP/GLP1 co-agonist compounds” (Eli Lilly and Company, priority 2018, dated 2025).

The EC50 is the concentration giving half of the maximal effect. The term Ki denotes a measure of affinity in units of concentration, obtained from inhibition or displacement.

In assay [1] the target is human GLP-1 receptor (GLP-1R) (Homo sapiens, UniProt P43220). Put plainly: cAMP pharmacological functional assay in presence of casein, hGLP-1R. In kind it is cell-based. The settings on record: HEK293 cells expressing hGLP-1R, 0.1% Casein, geometric mean; read-out: hGLP1R cAMP Rel EC50 nM (SEM, n).
For a further assay, the target named is T1, human Gcg receptor (Homo sapiens, UniProt P47871).
T1 construct: expressed in transfected cells; crude membranes
Put plainly: [125I]-Glucagon binding (SPA), human Gcg receptor. The following applies: read-out: hGLcgR Ki, nM (SEM, n). The gist of the method: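 Scintillation counts are taken after membranes and WGA beads incubate and settle for 12 hours at room temperature. Buffer is 25 mM HEPES, pH 7.4, with CaCl2, MgCl2, bacitracin and Tween-20. Ki values, from four-parameter IC50 fits, are geometric means over independent days.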

The target of assay [2] is T2, human GLP-1R (Homo sapiens, UniProt P43220). Put plainly: GLP-1R CHO cell β-arrestin recruitment assay. In kind it is cell-based. Set-up: host or cells: CHO-K1 PathHunter cells, assay-ready frozen. The settings on record: for EC50: CHO-K1 cells, PathHunter β-arrestin-2 recruitment, 0.1% casein, read-out: hGLP1R B-Arrestin2 Rel EC50 uM (SEM, n); for hGLP1R B-Arrestin2 % Top: normalized to GLP-1 maximum control. A digest of the protocol:
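Peptide-induced β-arrestin-2 recruitment measured by enzyme-fragment complementation luminescence after 90 min at 37 °C plus 60 min detection at RT.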
For orientation: Arrestin recruitment assays detect the binding of arrestin to an activated receptor.

In assay [3] the target is T2, human GLP-1R. Put plainly: GLP-1R HEK293 cell membrane [35S]GTPγS binding assay. The arrangement: expressed in transfected cells; host or cells: HEK293 cells expressing human GLP-1R; membranes. In kind it is biochemical. The following applies: HEK293 cell membranes expressing human GLP-1R, [35S]GTPγS binding; read-out: hGLP1R GTPgS Rel EC50 nM (SEM, n). A digest of the protocol: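 Agonist-driven Gαs activation read as [35S]GTPγS ([…]) binding to receptor-expressing HEK293 membranes, 30 min at room temperature, pH 7.4. Detection by anti-Gαs immunocapture on scintillation beads; EC50 derived from four-parameter logistic concentration-response fit.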
On the technique in general: GTPγS is a poorly hydrolysed GTP analogue; its binding reports G protein activation.

In assay [4] the target is T2, human GLP-1R. Put plainly: [125I]-GLP-1 binding (SPA), human GLP-1 receptor. The arrangement: expressed in transfected cells; crude membranes. The settings on record: read-out: hGLP1R Ki, (nM) (SEM, n). A digest of the protocol:
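Crude-membrane binding assay; one membrane prep included 1 mM MgCl2 and 25 units/ml DNAse I during lysis. Assay buffer at pH 7.4 contains 0.1% (w/v) bacitracin and 0.003% (w/v) TWEEN-20. Ki is reported as geometric mean.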

The target of assay [5] is T3, gastric inhibitory peptide receptor (GIPR) (Homo sapiens, UniProt P48546).
T3 sequence (P48546 22-466): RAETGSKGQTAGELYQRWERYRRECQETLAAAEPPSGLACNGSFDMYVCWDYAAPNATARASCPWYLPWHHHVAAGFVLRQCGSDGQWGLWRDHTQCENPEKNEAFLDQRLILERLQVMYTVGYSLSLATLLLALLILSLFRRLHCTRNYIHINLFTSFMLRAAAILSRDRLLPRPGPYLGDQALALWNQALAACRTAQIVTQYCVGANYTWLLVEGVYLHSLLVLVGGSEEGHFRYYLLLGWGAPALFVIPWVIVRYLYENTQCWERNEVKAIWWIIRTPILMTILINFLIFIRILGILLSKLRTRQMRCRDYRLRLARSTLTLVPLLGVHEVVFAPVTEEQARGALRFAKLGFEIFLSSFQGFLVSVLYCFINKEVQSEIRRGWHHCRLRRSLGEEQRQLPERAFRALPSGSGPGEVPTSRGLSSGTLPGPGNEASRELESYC
Put plainly: cAMP pharmacological functional assay in presence of casein, hGIPR. The following applies: HEK293 cells expressing hGIPR, 0.1% Casein, geometric mean; read-out: hGIPR cAMP Rel EC50 nM (SEM, n). In kind it is cell-based.

The target of the next assay is T4, human GIP receptor (Homo sapiens, UniProt P48546).
T4 construct: expressed in transfected cells; crude membranes
T4 sequence (P48546 22-466): T3 sequence (P48546 22-466)
Put plainly: [125I]-GIP binding (SPA), human GIP receptor. The settings on record: read-out: hGIPR Ki, nM (SEM, n).

The structures appear in SMILES notation. Numbered stars: 1 amine (or outer) side, 2 acyl side, 3 side chain; on linkers, the order of the positions; unused ones are H or OH. Square brackets hold non-standard residues; d marks the D form. Side chains are listed from the residue outwards. Peptide text beside a SMILES is read from it. * marks the point of attachment. C20 diacid = O=C(O)CCCCCCCCCCCCCCCCCCC(=O)*; γGlu = O=C(O)[C@H](CCC(=O)[*:2])N[*:1]; αMeL = CC(C)C[C@](C)(N)C(=O)O; AEEA = NCCOCCOCC(=O)O; Aib = CC(C)(N)C(=O)O

T2 sequence (P43220 24-463): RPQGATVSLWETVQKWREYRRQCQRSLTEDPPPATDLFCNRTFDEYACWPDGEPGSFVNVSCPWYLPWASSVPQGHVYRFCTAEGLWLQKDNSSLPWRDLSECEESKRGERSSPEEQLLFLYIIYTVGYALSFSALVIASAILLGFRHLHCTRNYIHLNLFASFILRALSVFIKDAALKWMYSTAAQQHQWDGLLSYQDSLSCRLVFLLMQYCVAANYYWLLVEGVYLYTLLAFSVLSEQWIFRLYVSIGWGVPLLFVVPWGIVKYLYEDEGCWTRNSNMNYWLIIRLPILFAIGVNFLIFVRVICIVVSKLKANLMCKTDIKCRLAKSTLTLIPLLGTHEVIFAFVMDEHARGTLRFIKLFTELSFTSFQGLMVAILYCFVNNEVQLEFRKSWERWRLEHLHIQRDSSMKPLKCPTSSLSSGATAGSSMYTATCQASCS
T1 sequence (P47871 26-477): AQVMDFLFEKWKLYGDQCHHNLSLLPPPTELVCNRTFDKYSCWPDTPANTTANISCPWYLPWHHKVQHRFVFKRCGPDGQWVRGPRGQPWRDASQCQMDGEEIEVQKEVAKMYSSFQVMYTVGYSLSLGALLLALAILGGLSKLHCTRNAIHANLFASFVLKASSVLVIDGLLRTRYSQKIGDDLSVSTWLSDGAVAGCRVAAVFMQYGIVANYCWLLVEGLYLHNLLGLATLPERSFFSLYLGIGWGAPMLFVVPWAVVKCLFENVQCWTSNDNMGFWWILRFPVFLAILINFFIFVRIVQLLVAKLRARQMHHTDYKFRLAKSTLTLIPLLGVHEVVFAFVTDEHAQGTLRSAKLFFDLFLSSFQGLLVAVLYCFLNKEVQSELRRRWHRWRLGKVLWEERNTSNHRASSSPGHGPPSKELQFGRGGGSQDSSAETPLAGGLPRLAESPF
human GLP-1 receptor (GLP-1R), sequence (P43220 24-463): as the sequence (P43220 24-463) above

With `CC[C@H](C)[C@H](NC(=O)[C@H](CC(C)C)NC(=O)[C@H](Cc1ccc(O)cc1)NC(=O)[C@H](CCC(=O)O)NC(=O)[C@@H](NC(=O)[C@H](Cc1ccccc1)NC(=O)[C@H](CCC(=O)O)NC(=O)C(C)(C)NC(=O)[C@H](CCC(N)=O)NC(=O)[C@H](C)NC(=O)[C@H](CCCCNC(=O)COCCOCCNC(=O)COCCOCCNC(=O)CC[C@H](NC(=O)CCCCCCCCCCCCCCCCCCC(=O)O)C(=O)O)NC(=O)[C@H](CCC(=O)O)NC(=O)[C@H](CC(=O)O)NC(=O)[C@H](CC(C)C)NC(=O)[C@](C)(CC(C)C)NC(=O)[C@@H](NC(=O)[C@H](CO)NC(=O)[C@H](Cc1ccc(O)cc1)NC(=O)[C@H](CC(=O)O)NC(=O)[C@H](CO)NC(=O)[C@@H](NC(=O)[C@H](Cc1ccccc1)NC(=O)[C@@H](NC(=O)CNC(=O)[C@H](CCC(=O)O)NC(=O)C(C)(C)NC(=O)[C@H](N)Cc1ccc(O)cc1)[C@@H](C)O)[C@@H](C)O)[C@@H](C)CC)[C@@H](C)CC)C(=O)N[C@@H](C)C(=O)NCC(=O)NCC(=O)N1CCC[C@H]1C(=O)N[C@@H](CO)C(=O)N[C@@H](CO)C(=O)NCC(=O)N[C@@H](C)C(=O)N1CCC[C@H]1C(=O)N1CCC[C@H]1C(=O)N1CCC[C@H]1C(=O)N[C@@H](CO)C(N)=O` [Example 342] (H-[dY][Aib]EGTFTSDYSI[αMeL]LDEK([AEEA-AEEA-γGlu-C20 diacid])AQ[Aib]EFIEYLIAGGPSSGAPPPS-NH2; N-terminus assumed), the EC50 in assay [1] is 0.127 nM; at human GLP-1R [2], 0.035 µM; at human GLP-1R [3], 0.414 nM; in assay [5], 0.159 nM. In addition, the Ki at human Gcg receptor is above 1000 nM; at human GLP-1R [4], 15.4 nM; at human GIP receptor it was 0.129 nM. Besides, the “hGLP1R B-Arrestin2 % Top” value at human GLP-1R [2] came out at 20.7%.
With `CC[C@H](C)[C@H](NC(=O)[C@H](CC(C)C)NC(=O)[C@H](Cc1ccc(O)cc1)NC(=O)[C@H](CCC(=O)O)NC(=O)[C@@H](NC(=O)[C@H](Cc1ccccc1)NC(=O)[C@H](C)NC(=O)C(C)(C)NC(=O)[C@H](CCC(N)=O)NC(=O)[C@H](C)NC(=O)[C@H](CCCCNC(=O)COCCOCCNC(=O)COCCOCCNC(=O)CC[C@H](NC(=O)CCCCCCCCCCCCCCCCCCC(=O)O)C(=O)O)NC(=O)[C@H](CCC(=O)O)NC(=O)[C@H](CC(=O)O)NC(=O)[C@H](CC(C)C)NC(=O)[C@](C)(CC(C)C)NC(=O)[C@@H](NC(=O)[C@H](CO)NC(=O)[C@H](Cc1ccc(O)cc1)NC(=O)[C@H](CC(=O)O)NC(=O)[C@H](CO)NC(=O)[C@@H](NC(=O)[C@H](Cc1ccccc1)NC(=O)[C@@H](NC(=O)CNC(=O)[C@H](CCC(=O)O)NC(=O)C(C)(C)NC(=O)[C@@H](N)Cc1ccc(O)cc1)[C@@H](C)O)[C@@H](C)O)[C@@H](C)CC)[C@@H](C)CC)C(=O)N[C@@H](C)C(=O)NCC(=O)NCC(=O)N1CCC[C@H]1C(=O)N[C@@H](CO)C(=O)N[C@@H](CO)C(=O)NCC(=O)N[C@@H](C)C(=O)N1CCC[C@H]1C(=O)N1CCC[C@H]1C(=O)N1CCC[C@H]1C(=O)N[C@@H](CO)C(N)=O` [Example 332] (H-Y[Aib]EGTFTSDYSI[αMeL]LDEK([AEEA-AEEA-γGlu-C20 diacid])AQ[Aib]AFIEYLIAGGPSSGAPPPS-NH2), the EC50 in assay [1] was 0.184 nM; on human GLP-1R [2] it was 0.0171 µM; on human GLP-1R [3] it was 0.453 nM; in assay [5], 0.0745 nM. The Ki on human Gcg receptor was 397 nM; at human GLP-1R [4], 7.87 nM; on human GIP receptor it was 0.0497 nM. In addition, the “hGLP1R B-Arrestin2 % Top” value on human GLP-1R [2] stood at 45.6%.
